In US7645740B2, “Peptide sequence found in Laminin 5 for treating skin impairments” (Laboratoires d'Anjou Centre National de la Recherche …, priority 2004, dated 2010):

Tested on: NHK-young (keratinocytes from young individuals)
Assay: Cell adhesion of NHK-young to immobilized peptide
Assay type: cell-based, human
Method: Dose-dependent cell adhesion of NHK-10 years versus NHK-71 years (A) and NHK-11 years versus NHK-60 years (B) peptides TALRIRATYHEY. The peptides were immobilized in 96-well plates at the concentrations given on the abscissa. 3.5×10^4 (A) cells and 4.3×10^4 (B) cells were deposited in each well and plates were incubated at 37° C. for 1 hour. After washing, attached cells were fixed and cell adhesion was measured as described in the methodology section (C). Cells were observed by phase contrast microscopy then photographed. Bar=50 μm.
In order to obtain keratinocytes originating from biopsies taken from young and old individuals and taken from the same anatomical site, the inventors conducted a study of facial skin biopsies. The area of the face situated behind the ears was chosen in order to study only intrinsic aging and to overcome the effects of photo-induced aging. Surgery waste from cosmetic surgery (face lifts) in older individuals and surgery waste from detached ears in young children was collected. It is essential to use biopsies collected on the same day as surgery was performed in order to quickly place the epidermal keratinocytes in culture. Cells from biopsies on elderly individuals (60, 63 and 71 years) and young individuals (8, 10 and 11 years) were used for this study. The keratinocytes were obtained by means of the technique described by Boyce and Ham, 1985. After careful washing in PBS buffer containing antibiotics, fatty tissue located under the dermis was removed from the skin fragments using sterile instruments. Skin was then cut into 3 mm^2 sections which were placed in a sterile solution of 0.25% trypsin in PBS for 16 hours at 4° C. Dermis/epidermis separation was performed using tweezers in a Petri dish containing culture medium in order to stop the enzyme action of trypsin. Epidermal fragments were then aspirated and blown out several times using a pipette in order to detach free basal cells. […]

TALRIRATYGEY (Human laminin 5) [Peptide 1]
deposited peptide quantity triggering adhesion (NHK-young): 0.08 µg | cell adhesion to immobilized peptide (NHK-young, 0 to 5 micrograms per well, 1 hour 37° C.): triggered dose-dependent cell adhesion | number of NHK-young cells attached compared to NHK-old (fold) (both experiments (10 vs 71 years, 11 vs 60 years), identical cell numbers): ~2
